The text below walks through data of publication PMC3478417 (Nuclear medicine and biology, 2012).

Data set [1] is described as follows: PET imaging of [11C]rhodamine-123 in rats. In kind it is in vivo, rat.
The conditions of data set [2]: cited from earlier work.
In the next data set the test system is P-gp. As to conditions: mouse, not told, iv; cited from earlier work.
The conditions of data set [3]: mouse; cited from earlier work.

As to `CN/C(=N/CCSCc1nc[nH]c1C)NC#N` [cimetidine], the “inhibition of OCT in kidney in vivo” value in data set [1] (30 mg/kg i.v., 30 min before radiotracer, rats) is recorded as “effective inhibitor of OCT in vivo”.

`CNC(=O)C(CCN1CCC(O)(c2ccc(Cl)cc2)CC1)(c1ccccc1)c1ccccc1` [dLop, desmethyl-loperamide]: in data set [2], the logD was 2.60 and the pKa is 7.2–7.3.

With `COC(=O)c1ccccc1-c1c2ccc(=N)cc-2oc2cc(N)ccc12.Cl` [rhodamine-123], the “peak radioactivity in liver (PET)” value in data set [1] (DCPQ-pretreated versus untreated rats) is given as “greater peak radioactivity in liver”. Further, the “brain concentration, P-gp knockout (mdr1a(−/−)) versus wild-type mice” value with P-gp was “about 4 fold”. Also, the Plasma free fraction in data set [3] is on record as 0.23 ± 0.04.
